Experiment: Thermal behaviour (TGA melting range apparatus Mettler TG 50, confirmed by DSC Mettler DSC 30)
Conditions: for decomposition temperature: heat ramp 20° C./min (TGA/DSC)

Row | Structure (SMILES) | thermal stability of one crystal form compared with the other (FT-IR, powder x-ray and TGA / DSC-TGA comparison of Form I and Form II) | decomposition temperature (listed as 7-(dimethoxy-methyl)camptothecin form I) | decomposition temperature (listed as form I) | decomposition temperature
1 | CC[C@@]1(O)C(=O)OCc2c1cc1n(c2=O)Cc2c-1nc1ccccc1c2C(OC)OC [Form I, 7-(dimethoxy-methyl)camptothecin] | less stable | 123.38 °C | 123.38 °C | 
2 | CC[C@@]1(O)C(=O)OCc2c1cc1n(c2=O)Cc2c-1nc1ccccc1c2C(OC)OC [Form II, (4S)-11-(dimethoxymethyl)-4-ethyl-4-hydroxy-1H-pyrano[3′,4′:6,7]indolizino[1,2-b]quinoline-3,14(4H,12H)-dione] |  |  |  | 173.56 °C

— patent publication US8269007B2, “Crystalline form II of 7-(dimethoxy-methyl) camptothecin, its use as intermediate and products obtained therefrom” (Sigma-Tau Industrie Farmaceutiche Riunite SpA, priority 2007, dated 2012)
